Key:
morningglory = test: Test B pre/postemergence morningglory; format: in vivo, Ipomoea hederacea
Outline: (§1)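 Response is a visual 0-to-10 score relative to untreated plants, where 0 means no effect and 10 means complete control, taken twelve to sixteen days after application. Treatments went onto soil at planting and onto foliage of 1- to 4-leaf plants, using a surfactant-containing non-phytotoxic solvent.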

velvetleaf = test: Test B pre/postemergence velvetleaf; format: in vivo, Abutilon theophrasti
Outline: as §1

wild oat = test: Test B pre/postemergence wild oat; format: in vivo, Avena fatua
Outline: as §1

surinam grass = test: Test B pre/postemergence surinam grass; format: in vivo, Brachiaria decumbens
Outline: as §1

soybean = test: Test B pre/postemergence soybean; format: in vivo, Glycine max
Outline: as §1

wheat = test: Test B pre/postemergence wheat; format: in vivo, Triticum aestivum
Outline: as §1

cocklebur = test: Test B pre/postemergence cocklebur; format: in vivo, Xanthium strumarium
Outline: as §1

pigweed = test: Test B pre/postemergence pigweed; format: in vivo, Amaranthus retroflexus
Outline: as §1

giant foxtail = test: Test B pre/postemergence giant foxtail; format: in vivo, Setaria faberii
Outline: as §1

blackgrass = test: Test B pre/postemergence blackgrass; format: in vivo, Alopecurus myosuroides
Outline: as §1

corn = test: Test B pre/postemergence corn; format: in vivo, Zea mays
Outline: as §1

crabgrass = test: Test B pre/postemergence crabgrass; format: in vivo, Digitaria sanguinalis
Outline: as §1

bedstraw = test: Test B pre/postemergence bedstraw; format: in vivo, Galium aparine; settings: Preemergence
Outline: as §1

sugar beet = test: Test B pre/postemergence sugar beet; format: in vivo, Beta vulgaris
Outline: as §1

purple nutsedge = test: Test B pre/postemergence purple nutsedge; format: in vivo, Cyperus rotundus
Outline: as §1

rape = test: Test B pre/postemergence rape; format: in vivo, Brassica napus
Outline: as §1

[1] = Postemergence, Rate 62 g/ha, scale 0 to 10, 0 is no effect, 10 is complete control
[2] = Postemergence, Rate 125 g/ha, scale of 0 to 10 where 0 is no effect and 10 is complete control
[3] = Preemergence, Rate 62 g/ha, scale of 0 to 10 where 0 is no effect and 10 is complete control
[4] = Preemergence, Rate 125 g/ha, scale of 0 to 10 where 0 is no effect and 10 is complete control
[5] = Preemergence, Rate 250 g/ha, scale 0 (no effect) to 10 (complete control)
[6] = Rate 250 g/ha, Postemergence, scale 0 to 10, 0 is no effect, 10 is complete control
[7] = Rate 500 g/ha, Postemergence, scale 0 to 10, 0 is no effect, 10 is complete control
[8] = Preemergence, Rate 500 g/ha, scale of 0 to 10 where 0 is no effect and 10 is complete control

## CC(C)N(C(=O)n1oc(=O)n(CCCCl)c1=O)c1ccc(F)cc1 [Compound 713]
morningglory; [1]
  Plant response rating, Morningglory: 2
morningglory; [2]
  Morningglory plant response rating: 3
morningglory; [3]
  Morningglory plant response rating: 0
morningglory; [4]
  Plant response rating, Morningglory: 0
morningglory; [5]
  Morningglory plant response rating: 0
morningglory; [6]
  Morningglory plant response rating: 7
morningglory; [7]
  Morningglory plant response rating: 10
velvetleaf; [1]
  Plant response rating, Velvetleaf: 3
velvetleaf; [2]
  Velvetleaf plant response rating: 6
velvetleaf; [3]
  Velvetleaf plant response rating: 2
velvetleaf; [4]
  Plant response rating, Velvetleaf: 5
velvetleaf; [5]
  Velvetleaf plant response rating: 5
velvetleaf; [6]
  Velvetleaf plant response rating: 6
velvetleaf; [7]
  Velvetleaf plant response rating: 7
Wild oat; [1]
  Plant response rating, Wild oats: 0
Wild oat; [2]
  Wild oats plant response rating: 0
Wild oat; [3]
  Wild oats plant response rating: 2
Wild oat; [4]
  Plant response rating, Wild oats: 5
Wild oat; [5]
  Wild oats plant response rating: 8
Wild oat; [6]
  Wild oats plant response rating: 1
Wild oat; [7]
  Wild oats plant response rating: 5
Surinam grass; [1]
  Plant response rating, B. signalgrass: 0
Surinam grass; [2]
  B. signalgrass plant response rating: 3
Surinam grass; [3]
  B. signalgrass plant response rating: 5
Surinam grass; [4]
  Plant response rating, B. signalgrass: 7
Surinam grass; [5]
  B. signalgrass plant response rating: 8
Surinam grass; [8]
  Plant response rating, B. signalgrass: 9
Surinam grass; [6]
  B. signalgrass plant response rating: 5
Surinam grass; [7]
  B. signalgrass plant response rating: 7
soybean; [1]
  Plant response rating, Soybean: 3
soybean; [2]
  Soybean plant response rating: 4
soybean; [3]
  Soybean plant response rating: 0
soybean; [4]
  Plant response rating, Soybean: 0
soybean; [5]
  Soybean plant response rating: 0
soybean; [6]
  Soybean plant response rating: 5
soybean; [7]
  Soybean plant response rating: 5
wheat; [1]
  Plant response rating, Wheat: 0
wheat; [2]
  Wheat plant response rating: 1
wheat; [3]
  Wheat plant response rating: 0
wheat; [4]
  Plant response rating, Wheat: 0
wheat; [5]
  Wheat plant response rating: 1
wheat; [6]
  Wheat plant response rating: 2
wheat; [7]
  Wheat plant response rating: 2
cocklebur; [1]
  Plant response rating, Cocklebur: 1
cocklebur; [2]
  Cocklebur plant response rating: 2
cocklebur; [3]
  Cocklebur plant response rating: 0
cocklebur; [4]
  Plant response rating, Cocklebur: 0
cocklebur; [5]
  Cocklebur plant response rating: 0
cocklebur; [8]
  Plant response rating, Cocklebur: 0
cocklebur; [6]
  Cocklebur plant response rating: 3
cocklebur; [7]
  Cocklebur plant response rating: 6
pigweed; [1]
  Plant response rating, Redroot pigweed: 2
pigweed; [3]
  Redroot pigweed plant response rating: 6
pigweed; [4]
  Plant response rating, Redroot pigweed: 7
pigweed; [5]
  Redroot pigweed plant response rating: 8
pigweed; [6]
  Redroot pigweed plant response rating: 9
pigweed; [7]
  Redroot pigweed plant response rating: 9
Giant foxtail; [1]
  Plant response rating, Giant foxtail: 4
Giant foxtail; [2]
  Giant foxtail plant response rating: 9
Giant foxtail; [3]
  Giant foxtail plant response rating: 10
Giant foxtail; [4]
  Plant response rating, Giant foxtail: 10
Giant foxtail; [5]
  Giant foxtail plant response rating: 10
Giant foxtail; [6]
  Giant foxtail plant response rating: 9
Giant foxtail; [7]
  Giant foxtail plant response rating: 9
blackgrass; [1]
  Plant response rating, Blackgrass: 1
blackgrass; [2]
  Blackgrass plant response rating: 3
blackgrass; [3]
  Blackgrass plant response rating: 5
blackgrass; [4]
  Plant response rating, Blackgrass: 8
blackgrass; [5]
  Blackgrass plant response rating: 9
blackgrass; [8]
  Plant response rating, Blackgrass: 9
blackgrass; [6]
  Blackgrass plant response rating: 7
blackgrass; [7]
  Blackgrass plant response rating: 7
corn; [1]
  Plant response rating, Corn: 0
corn; [2]
  Corn plant response rating: 0
corn; [3]
  Corn plant response rating: 0
corn; [4]
  Plant response rating, Corn: 0
corn; [5]
  Corn plant response rating: 0
corn; [6]
  Corn plant response rating: 0
corn; [7]
  Corn plant response rating: 5
crabgrass; [1]
  Plant response rating, Crabgrass: 2
crabgrass; [2]
  Crabgrass plant response rating: 9
crabgrass; [3]
  Crabgrass plant response rating: 10
crabgrass; [4]
  Plant response rating, Crabgrass: 10
crabgrass; [5]
  Crabgrass plant response rating: 10
crabgrass; [6]
  Crabgrass plant response rating: 9
crabgrass; [7]
  Crabgrass plant response rating: 9
bedstraw; Rate 62 g/ha, scale of 0 to 10 where 0 is no effect and 10 is complete control
  Bedstraw plant response rating: 0
bedstraw; Rate 125 g/ha, scale of 0 to 10 where 0 is no effect and 10 is complete control
  Plant response rating, Bedstraw: 0
bedstraw; Rate 250 g/ha, scale 0 (no effect) to 10 (complete control)
  Bedstraw plant response rating: 2
bedstraw; Rate 500 g/ha, scale of 0 to 10 where 0 is no effect and 10 is complete control
  Plant response rating, Bedstraw: 6
Sugar beet; [1]
  Plant response rating, Sugarbeets: 0
Sugar beet; [2]
  Sugarbeets plant response rating: 0
Sugar beet; [3]
  Sugarbeets plant response rating: 3
Sugar beet; [4]
  Plant response rating, Sugarbeets: 4
Sugar beet; [5]
  Sugarbeets plant response rating: 7
Sugar beet; [6]
  Sugarbeets plant response rating: 0
Sugar beet; [7]
  Sugarbeets plant response rating: 5
Purple nutsedge; [1]
  Plant response rating, Nutsedge: 0
Purple nutsedge; [2]
  Nutsedge plant response rating: 0
Purple nutsedge; [3]
  Nutsedge plant response rating: 0
Purple nutsedge; [4]
  Plant response rating, Nutsedge: 0
Purple nutsedge; [5]
  Nutsedge plant response rating: 0
Purple nutsedge; [6]
  Nutsedge plant response rating: 0
Purple nutsedge; [7]
  Nutsedge plant response rating: 3
rape; [1]
  Plant response rating, Rape: 0
rape; [2]
  Rape plant response rating: 0
rape; [3]
  Rape plant response rating: 4
rape; [4]
  Plant response rating, Rape: 4
rape; [5]
  Rape plant response rating: 8
rape; [6]
  Rape plant response rating: 6
rape; [7]
  Rape plant response rating: 6

Source: patent US6737383B1, “Herbicidal oxadiazolidines” (priority 1999, dated 2004)
